Here are results for five compounds from publication PMC5289073, “Stable expression and functional characterisation of the diamondback moth ryanodine receptor G4946E variant conferring resistance to diamide insecticides” (Scientific Reports, 2015).

The target in assay [1] is T1, P. xylostella WT RyR (Plutella xylostella, UniProt K7W8M2). As to the kind of experiment: Calcium fluorescence (Fluo8, FLIPR Tetra), Sf9 cells stably expressing wild-type RyR (Sf9-wtRyR). In kind it is cell-based. The note with it: for Intracellular calcium signal over time (Fluo8): caffeine 30 mM, flubendiamide-sulfoxide 1 μM, chlorantraniliprole 1 μM. Here is the method:
Single Sf9 cell clones stably expressing either the wild-type (Sf9-wtRyR) or the G4946E (Sf9-mRyR) RyR channel were isolated after a few cycles of clonal selection. […] This may be explained by compensatory calcium re-uptake mechanisms of the sarco-/endoplasmic reticulum, in particular the Ca^2+-ATPase (SERCA)[32][33].
Fluorescence of the calcium-Fluo8 complex was measured as a function of time.
Measurements of the integrated calcium signals as a function of the diamide concentration, gave characteristic dose-response curves, from which apparent EC50 concentrations for flubendiamide-sulfoxide and chlorantraniliprole were calculated (Fig. 6). These values represent the effector concentration causing half-maximal integrated calcium signals in the cells. […] It should be noted that the EC50 values are not only determined by the compound’s affinities to the RyR, but also by their availability at the intracellular target site as influenced by their physico-chemical properties.
(§1) Figure 6 Calcium transients in Sf9 cells stably expressing either the P. xylostella WT (●) or the modified (G4946E) RyR (▲) as a function of the diamide concentration. Calcium-dye (Fluo8) fluorescence was measured after (a) flubendiamide-sulfoxide or (b) chlorantraniliprole application as a function of time. The integrated fluorescence signals were plotted against the logarithm of the effector concentration. Data fitting and EC50 calculations were performed with the SigmaPlot v13 software package.
(§2) Cells were transfected as described above and subjected to selection with 300 μg ml^−1 zeocin by the dilution method, essentially as described in the manufacturer´s manual (Invitrogen). After a few successive rounds of clonal selection, zeocin-resistant cell clones were tested for functional RyR expression by calcium fluorescence measurements.
(§3) Calcium-dye fluorescence was measured with Fluo8-loaded cells on the FLIPR Tetra instrument (Molecular Devices) in the 384 microtiter plate format. 1.5 × 10[4] cells per well were treated with variable concentrations of effector compounds in a total volume of 80 μl Tyrode´s buffer containing 0.1% DMSO (final concentration) essentially following the established protocols provided with the Fluo8 No-Wash calcium assay kit (Molecular Devices). Excitation and emission wavelengths were set at 490 nm and 525 nm, respectively.
(In general: Calcium flux is commonly read through the fluorescence of an indicator in the cells.)

Assay [2] concerns the target T2, P. xylostella G4946E RyR (Plutella xylostella, UniProt K7W8M2, G4900E). Kind of assay: Calcium fluorescence (Fluo8, FLIPR Tetra), Sf9 cells stably expressing G4946E RyR (Sf9-mRyR). In kind it is cell-based. Here is the method: as §1
The efficacy of both diamides was reduced dramatically in the Sf9-mRyR cells expressing the G4946E RyR.
as §2, §3

In the next assay the test system is Plutella xylostella. As to conditions: cited from earlier work; for Resistance compared to susceptible strains: larvae collected from the Philippines and Thailand in 2012.
In assay [3] the test system is P. xylostella RyR (thoracic microsomal membranes). As to conditions: Philippine strain versus susceptible strain; cited from earlier work.
For the next assay, the system named is Tuta absoluta. Also on record: method as in ref 39 = [39]; Roditakis E. et al. First report of Tuta absoluta resistance to diamide insecticides . J Pest Sci. 88 , 9 – 16 ( 2015 ). The note with it: T. absoluta population from Sicily (Italy), up; cited from earlier work.
In the next assay the test system is Adoxophyes honmai. Also on record: method as in ref 40 = [40]; Uchiyama T. & Ozawa A. Rapid development of resistance to diamide insecticides in the smaller tea tortrix, Adoxophyes honmai (Lepidoptera: Tortricidae), in the tea fields of Shizuoka Prefecture, Japan. As to conditions: cited from earlier work.
Assay [4] deals with P. xylostella ROTH WT RyR. As to the kind of experiment: Fura-2 AM calcium release, Sf9 cells transiently expressing ROTH WT RyR. The note with it: 72 h post transfection, caffeine 30 mM, flubendiamide sulfoxide 30 μM, flubendiamide 10 μM. In kind it is cell-based, Plutella xylostella. The protocol: (§4) Figure 3 Fluorescence ratios measured over time in a single calcium release experiment using Fura-2 AM in Sf9 cells transiently expressing (a) WT construct and (b) the G4946E variant 72 h post transfection.
(§5) Sf9 cells (Life technologies) were maintained in Sf-900 II SFM (Gibco-life technologies) serum free media without antibiotic in 30 ml suspension cultures (shaking at 115 rpm) at a constant temperature of 27 °C. Cells used for transfection were seeded into 60 mm cell culture dishes (Corning®), at 2 × 10[6] cells per dish in 3 ml of Sf-900 II SFM, and left to attach for 1 h. Cells were transfected using 3 μg of plasmid DNA, 15 μl Cellfectin II reagent (Life technologies) and 5 μl PLUS™ enhancer reagent (Life technologies) per dish, following the manufacturer’s protocol.
(§6) Fura 2-AM dye (Life technologies, CA, USA) was used for monitoring calcium release in Sf9 cells transfected with the P. xylostella RyR. Approximately 2.5 × 10^5 of un-transfected SF9 cells were allowed to attach to Poly-L-lysine coated coverslips (Sigma, MA, USA) for 1 h and then transfected using Cellfectin™ II. 24 h, 48 h, 72 h and 96 h post transfection the cells were loaded with […] of Fura 2-AM calcium sensitive dye. Cells were left to incubate at 27 °C for 45–60 minutes, followed by 3 washes with 500 μl of fresh un-supplemented Sf-900 II medium. […]

The target of assay [5] is T2, P. xylostella G4946E RyR. In kind it is cell-based. The note with it: 72 h post transfection, caffeine 30 mM, flubendiamide 10 μM. The protocol: as §4, §5, §6
Assay [6] addresses T1, P. xylostella WT RyR. Kind of assay: [3H] ryanodine binding, membranes of Sf9 cells transiently expressing ROTH WT RyR. Here is the method: (§7) Apparent differences in Kd and Bmax with those reported in other studies could likely be explained by the different experimental conditions.
(§8) Figure 4 Tritium labelled ryanodine binding from Sf9 membrane preparations expressing P. xylostella WT and G4946E RyRs.
(§9) For membrane preparation, transfected cells were harvested 48 h post transfection using phosphate buffered saline (PBS), the cells counted and then re-suspended in a hypo-osmotic buffer (20 mM Tris, 1 mM EDTA pH 7.4) at a concentration of 2 × 10[6] cells per ml. The cells were then homogenised and centrifuged at 1,500 g for 15 min at 4 °C to remove cell debris. The supernatant was removed, centrifuged at 100,000 g for 1 h at 4 °C and the membrane pellet re-suspended in a 0.4 M sucrose, 20 mM HEPES solution (20 μl per 2 × 10[6] cells). Protein concentration was determined using Bradford reagent (Bio-Rad) following the manufacturer’s instructions, against Bovine Serum Albumin (BSA) standards.
(§10) Binding reactions were set up in a 96 well flat bottom microtiter plate in a total volume of 250 μl per well. […]

Assay [7] addresses T2, P. xylostella G4946E RyR. As to the kind of experiment: [3H] ryanodine binding, membranes of Sf9 cells transiently expressing G4946E RyR. Here is the method: as §7, §8, §9, §10
In assay [8] the target is rabbit skeletal muscle RyR. Also on record: method as in PMID 11220363. As to conditions: native preparation of rabbit skeletal muscle RyR; cited from earlier work.
The target of a further assay is H. virescens RyR. As to conditions: cited from earlier work.

Like-named read-outs stand apart in the source and are kept apart here.

`Cn1c(=O)c2c(ncn2C)n(C)c1=O` [caffeine]: the “Intracellular calcium signal over time (Fluo8)” value at P. xylostella WT RyR [1] (Sf9-wtRyR) is “increased rapidly to the maximum in less than one minute after application and then decreased to baseline levels”.
As to `CNC(=O)c1cc(Cl)cc(C)c1NC(=O)c1cc(Br)nn1-c1ncccc1Cl` [chlorantraniliprole], the values for the EC50 at P. xylostella WT RyR [1] and at P. xylostella G4946E RyR [2] were 17 nM and 3720 nM, respectively. The “Intracellular calcium signal over time (Fluo8)” value on P. xylostella WT RyR [1] (Sf9-wtRyR) is “increased intracellular calcium concentrations that persisted”. The “Loss of effect on the RyR channel with G4946E substitution versus WT” value at P. xylostella G4946E RyR [2] (G4946E versus WT, from EC50 values) was “roughly two orders of magnitude”. In the assay on Plutella xylostella (field populations from China with G4946E), the Resistance was 303–658 fold. Besides, in the assay on Plutella xylostella, the “Resistance compared to susceptible strains” value is listed as “over 200 fold”. For the same compound, the “Resistance ratio of EC50 for ryanodine binding stimulation” value in assay [3] is 159 fold. Moreover, the Resistance level entry in the assay with Tuta absoluta is “up to 2,414 fold”. In addition, in the assay on Adoxophyes honmai, the Resistance ratio is reported as 77.2 fold.
As for `Cc1cc(C(F)(C(F)(F)F)C(F)(F)F)ccc1NC(=O)c1cccc(I)c1C(=O)NC(C)(C)C[S+](C)[O-]` (centres unmarked) [flubendiamide sulfoxide], the EC50 was 245 nM on P. xylostella WT RyR [1] (Sf9-wtRyR, stable WT RyR, Fluo8, ± standard error printed, read-out: EC50 (half-maximal integrated calcium signal)) and above 20000 nM at P. xylostella G4946E RyR [2] (Sf9-mRyR, stable G4946E RyR, Fluo8, ± standard error printed, read-out: EC50 (half-maximal integrated calcium signal)). Further, at P. xylostella WT RyR [1] (Sf9-wtRyR), the “Intracellular calcium signal over time (Fluo8)” value was “increased intracellular calcium concentrations that persisted”. Moreover, the “Calcium release response (Fura-2 fluorescence ratio)” value is “reversible activation of the calcium release” in [4] and “failed to induce any release of calcium” at P. xylostella G4946E RyR [5].
Consider `Cc1cc(C(F)(C(F)(F)F)C(F)(F)F)ccc1NC(=O)c1cccc(I)c1C(=O)NC(C)(C)CS(C)(=O)=O` [flubendiamide], for which the “Calcium release response (Fura-2 fluorescence ratio)” value in assay [4] is “permanently increased Ca^2+ levels”; on P. xylostella G4946E RyR [5], “did not show any calcium release”. In addition, in the assay with Plutella xylostella, the “Resistance compared to susceptible strains” value was “over 200 fold”. Moreover, in assay [3], the “Resistance ratio of EC50 for ryanodine binding stimulation” value is above 450 fold. Moreover, the Resistance level with Tuta absoluta is on record as ≤ 1,742 fold. In the assay on Adoxophyes honmai, the Resistance ratio was 105 fold.
For `CC(C)[C@@]1(O)[C@@H](OC(=O)c2ccc[nH]2)[C@@]2(O)[C@@]3(C)C[C@]4(O)O[C@@]5([C@H](O)[C@@H](C)CC[C@]35O)[C@@]2(O)[C@@]14C` [ryanodine], the Kd was 12.9 ± 4.5 nM at P. xylostella WT RyR [6]; 14.7 ± 4.18 nM on P. xylostella G4946E RyR [7]; 2.04 ± 0.12 nM in assay [8]; 13.9 ± 3.8 nM at H. virescens RyR (H. virescens native membrane preparations, different study); 3.82 ± 0.39 nM at H. virescens RyR (native preparation of H. virescens RyR).

As usually defined, the EC50 is the concentration that produces a half-maximal response. A word on the Kd: it is the concentration at which binding is half-saturated.
